Laboratory results from patent publication US20170152245A1 (National Taiwan University, priority 2015, published 2017).

System: human platelet suspension
Test: U46619-induced platelet aggregation in human platelet suspension
Assay type: cell-based
Conditions: Homo sapiens, Platelet, U46619-induced aggregation, platelet suspension; read-out: P.S(U46619) IC50
Experimental: Human platelet suspension (PS) was prepared according to the method described previously. Briefly, blood sample, freshly obtained from healthy volunteers who had taken no medications during the preceding 2 weeks, was treated with acid citrate/dextrose (ACD) in a volume ratio of 9:1. After centrifugation at 120 g, 25° C. for 9 min, platelet-rich plasma was transferred into another plastic tube and incubated with heparin (6.4 U/ml) as well as prostaglandin E1 (1 μM). Platelets were spun down by centrifugation at 500 g, 25° C. for 8 min and subsequently washed two times with Tyrode solution (NaH2PO4 0.4 mM; NaCl 136.9 mM; KCl […]; NaHCO3 11.9 mM; CaCl2 2 mM; MgCl2 2.1 mM; glucose 11.1 mM; BSA 3.5 mg/ml; pH 7.35-7.4). The washed platelets were finally suspended in Tyrode's solution and the platelet count was adjusted to 3.75×10^8 platelets/ml. For platelet-rich plasma (PRP) preparation, whole blood was anticoagulated with 1/10 vol of sodium citrate (3.8%, w/v) and centrifuged at 150 g, 25° C. for 9 min.
Platelet aggregation was measured turbidimetrically with a Lumi-aggregometer (Payton Scientific) at 37° C. under stirring condition (900 rpm). Platelet suspensions were prewarmed to 37° C. for 2 min in a silicone-treated glass cuvette. Nstpbp5185 was added 3 min before the addition of platelet-aggregation inducers. The extent of platelet aggregation was determined by recording the increase of light transmission relative to that of control (maximal aggregation, as 100%) for 6 min after the addition of inducer. The final volume and platelet count for measuring platelet aggregation were 500 μl and 3×10^8/ml, respectively.

SMILES	IC50
Cc1ccc(-c2nc3cc(Cl)c(Cl)cc3n2Cc2ccccc2C)o1 [Example 68, 5,6-dichloro-1-(2-methylbenzyl)-2-(5-methyl-2-furyl)benzimidazole]	5.69 µM
Cc1ccc(-c2nc3ccc(Cl)cc3n2Cc2ccccc2)o1 [Example 42a, 1-benzyl-6-chloro-2-(5-methyl-2-furyl)benzimidazole]	3.55 µM
COc1ccc(Cn2c(-c3ccc(C)o3)nc3cc(Cl)c(Cl)cc32)cc1 [Example 61, 5,6-dichloro-1-(4-methoxybenzyl)-2-(5-methyl-2-furyl)benzimidazole]	26.9 µM
Cc1ccc(-c2nc3cc(F)ccc3n2Cc2cccc(F)c2)o1 [Example 37a, 5-fluoro-1-(3-fluorobenzyl)-2-(5-methyl-2-furyl)benzimidazole]	1.7 µM
Cc1ccc(-c2nc3ccc(Cl)cc3n2Cc2ccccc2F)o1 [Example 48b, 6-chloro-1-(2-fluorobenzyl)-2-(5-methyl-2-furyl)benzimidazole]	3.11 µM
Cc1ccc(-c2nc3cc(Cl)c(Cl)cc3n2Cc2ccccc2Cl)o1 [Example 60, 5,6-dichloro-1-(2-chlorobenzyl)-2-(5-methyl-2-furyl)benzimidazole]	42.9 µM
Cc1ccc(-c2nc3cc(Cl)c(Cl)cc3n2Cc2cccc([N+](=O)[O-])c2)o1 [Example 56, 5,6-dichloro-1-(3-nitrobenzyl)-2-(5-methyl-2-furyl)benzimidazole]	27 µM
Cc1ccc(-c2nc3ccc(C(=O)c4ccccc4)cc3n2Cc2ccccc2C)o1 [Example 83, 6-benzoyl-1-(2-methylbenzyl)-2-(5-methyl-2-furyl)benzimidazole]	> 50 µM
Cc1ccc(-c2nc3cc(Cl)c(Cl)cc3n2Cc2ccccc2)o1 [Example 54a, 1-Benzyl-5,6-dichloro-2-(5-methyl-2-furyl)benzimidazole]	6.98 µM
Cc1ccc(-c2nc3cc(Cl)c(Cl)cc3n2Cc2ccccc2[N+](=O)[O-])o1 [Example 57, 5,6-dichloro-1-(2-nitrobenzyl)-2-(5-methyl-2-furyl)benzimidazole]	> 50 µM
COc1ccc(Cn2c(-c3ccc(C)o3)nc3cc(F)ccc32)cc1 [Example 34a, 5-fluoro-1-(4-methoxybenzyl)-2-(5-methyl-2-furyl)benzimidazole]	34.5 µM
Cc1ccc2[nH]c(-c3ccc(C)o3)nc2c1 [Example 29, 5-methyl-2-(5-methyl-2-furyl)benzimidazole]	33.7 µM
Cc1ccc(-c2nc3cc(F)ccc3n2Cc2ccccc2F)o1 [Example 38a, 5-fluoro-1-(2-fluorobenzyl)-2-(5-methyl-2-furyl)benzimidazole]	4.14 µM
Cc1cccc(Cn2c(-c3ccc(C)o3)nc3cc(Cl)c(Cl)cc32)c1 [Example 67, 5,6-dichloro-1-(3-methylbenzyl)-2-(5-methyl-2-furyl)benzimidazole]	6.52 µM
COc1cccc(Cn2c(-c3ccc(C)o3)nc3ccc(Cl)cc32)c1 [Example 50b, 6-chloro-1-(3-methoxybenzyl)-2-(5-methyl-2-furyl)benzimidazole]	27.4 µM
Cc1cccc(Cn2c(-c3ccc(C)o3)nc3ccc(F)cc32)c1 [Example 40b, 6-Fluoro-1-(3-methylbenzyl)-2-(5-methyl-2-furyl)benzimidazole]	5.39 µM
COc1cccc(Cn2c(-c3ccc(C)o3)nc3cc(Cl)c(Cl)cc32)c1 [Example 62, 5,6-Dichloro-1-(3-methoxybenzyl)-2-(5-methyl-2-furyl)benzimidazole]	8.88 µM
Cc1ccc(-c2nc3ccc(Cl)cc3n2Cc2cccc(Cl)c2)o1 [Example 44b, 6-chloro-1-(3-chlorobenzyl)-2-(5-methyl-2-furyl)benzimidazole]	3.1 µM
Cc1cccc(Cn2c(-c3ccc(C)o3)nc3cc(F)ccc32)c1 [Example 40a, 5-fluoro-1-(3-methylbenzyl)-2-(5-methyl-2-furyl)benzimidazole]	14.6 µM
Cc1ccc(Cn2c(-c3ccc(C)o3)nc3ccc(C(=O)c4ccccc4)cc32)cc1 [Example 81, 6-benzoyl-1-(4-methylbenzyl)-2-(5-methyl-2-furyl)benzimidazole]	> 50 µM
Cc1ccc(-c2nc3ccc(Cl)cc3n2Cc2ccc(F)cc2)o1 [Example 46a, 6-chloro-1-(4-fluorobenzyl)-2-(5-methyl-2-furyl)benzimidazole]	3.13 µM
Cc1cccc(Cn2c(-c3ccc(C)o3)nc3ccc(Cl)cc32)c1 [Example 52b, 6-chloro-1-(3-methylbenzyl)-2-(5-methyl-2-furyl)benzimidazole]	5.22 µM
Cc1ccc(-c2nc3cc(Cl)c(Cl)cc3[nH]2)o1 [Example 54, 5,6-dichloro-2-(5-methyl-2-furyl)benzimidazole]	5.13 µM

SMILES	IC50
Cc1ccc(Cn2c(-c3ccc(C)o3)nc3cc(Cl)ccc32)cc1 [Example 51b, 5-chloro-1-(4-methylbenzyl)-2-(5-methyl-2-furyl)benzimidazole]	62.8 µM
Cc1ccc(-c2nc3ccc(Cl)cc3n2Cc2ccccc2Cl)o1 [Example 45b, 6-chloro-1-(2-chlorobenzyl)-2-(5-methyl-2-furyl)benzimidazole]	7.52 µM
Cc1ccc(-c2nc3ccc(C(=O)c4ccccc4)cc3[nH]2)o1 [Example 69, 6-benzoyl-2-(5-methyl-2-furyl)benzimidazole]	> 50 µM
Cc1ccc(Cn2c(-c3ccc(C)o3)nc3cc(Cl)c(Cl)cc32)cc1 [Example 66, 5,6-dichloro-1-(4-methylbenzyl)-2-(5-methyl-2-furyl)benzimidazole]	40.3 µM
COc1ccc(Cn2c(-c3ccc(C)o3)nc3ccc(Cl)cc32)cc1 [Example 49b, 6-chloro-1-(4-methoxybenzyl)-2-(5-methyl-2-furyl)benzimidazole]	29.6 µM
Cc1cccc(Cn2c(-c3ccc(C)o3)nc3cc(Cl)ccc32)c1 [Example 52a, 5-chloro-1-(3-methylbenzyl)-2-(5-methyl-2-furyl)benzimidazole]	29.9 µM
Cc1ccc(-c2nc3cc(Cl)ccc3n2Cc2ccccc2C)o1 [Example 53a, 5-chloro-1-(2-methylbenzyl)-2-(5-methyl-2-furyl)benzimidazole]	6.01 µM
COc1cccc(Cn2c(-c3ccc(C)o3)nc3cc(Cl)ccc32)c1 [Example 50a, 5-chloro-1-(3-methoxybenzyl)-2-(5-methyl-2-furyl)benzimidazole]	38 µM
Cc1ccc(-c2nc3cc(Cl)ccc3n2Cc2cccc(Cl)c2)o1 [Example 44a, 5-chloro-1-(3-chlorobenzyl)-2-(5-methyl-2-furyl)benzimidazole]	9.74 µM
COc1ccc2c(c1)nc(-c1ccc(C)o1)n2Cc1ccccc1 [Example 25b, 1-benzyl-5-methoxy-2-(5-methyl-2-furyl)benzimidazole]	3.3 µM
Cc1ccc(-c2nc3ccc(C(=O)c4ccccc4)cc3n2Cc2ccccc2)o1 [Example 69a, 1-Benzyl-6-benzoyl-2-(5-methyl-2-furyl)benzimidazole]	17.2 µM
Cc1ccc(-c2nc3cc(Cl)ccc3[nH]2)o1 [Example 42]	37.3 µM
Cc1ccc(-c2nc3cc(Cl)ccc3n2Cc2ccc(Cl)cc2)o1 [Example 43b, 5-chloro-1-(4-chlorobenzyl)-2-(5-methyl-2-furyl)benzimidazole]	127 µM
Cc1ccc(-c2nc3cc(F)ccc3n2Cc2ccccc2C)o1 [Example 41a, 5-fluoro-1-(2-methylbenzyl)-2-(5-methyl-2-furyl)benzimidazole]	2.61 µM
Cc1ccc(-c2nc3cc(Cl)ccc3n2Cc2ccccc2F)o1 [Example 48a, 5-chloro-1-(2-fluorobenzyl)-2-(5-methyl-2-furyl)benzimidazole]	6.7 µM
Cc1ccc(-c2nc3cc(F)ccc3n2Cc2cccc(Cl)c2)o1 [Example 32a, 5-fluoro-1-(3-chlorobenzyl)-2-(5-methyl-2-furyl)benzimidazole]	4.26 µM
Cc1ccc(-c2nc3ccccc3n2Cc2cccnc2)o1 [Example 23, 1-(3-Picoyl)-2-(5-methyl-2-furyl)benzimidazole]	3.01 µM
Cc1ccc(-c2nc3ccc(F)cc3n2Cc2ccccc2)o1 [Example 30a, 1-benzyl-6-fluoro-2-(5-methyl-2-furyl)benzimidazole]	6.79 µM
Cc1ccc(-c2nc3cc(Cl)c(Cl)cc3n2Cc2ccc(F)cc2)o1 [Example 63, 5,6-dichloro-1-(4-fluorobenzyl)-2-(5-methyl-2-furyl)benzimidazole]	2.68 µM
COc1ccc(Cn2c(-c3ccc(C)o3)nc3ccc(C(=O)c4ccccc4)cc32)cc1 [Example 76, 6-benzoyl-1-(4-methoxybenzyl)-2-(5-methyl-2-furyl)benzimidazole]	> 50 µM
Cc1ccc(-c2nc3ccc(F)cc3n2Cc2cccc(Cl)c2)o1 [Example 32b, 6-fluoro-1-(3-chlorobenzyl)-2-(5-methyl-2-furyl)benzimidazole]	3.09 µM
COc1ccc2nc(-c3ccc(C)o3)n(Cc3ccccc3)c2c1 [Example 25a, 1-benzyl-6-methoxy-2-(5-methyl-2-furyl)benzimidazole]	1.45 µM
Cc1ccc(-c2nc3ccccc3n2Cc2ccccn2)o1 [Example 22, 1-(2-Picoyl)-2-(5-methyl-2-furyl)benzimidazole]	4.29 µM
